Assay results as given in patent US5446032A, “Imidazo (4,5-C) pyridine derivatives as PAF antagonists” (British Biotech Pharmaceuticals Limited, priority 1991, dated 1995).

What follows are compounds tested against T1, PAF receptor (human platelet plasma membrane) (Homo sapiens, UniProt P25105) (assay: Inhibition of [3H]-PAF receptor binding to human platelet plasma membrane). Settings: [3H]-PAF 0.5 nM; 100 μg membrane fraction; 0° C.; 1 hour incubation; pH 7.0.
T1 construct: Platelet concentrates are obtained from a hospital blood bank; from tissue; host or cells: human platelets (concentrates from a hospital blood bank), lysed by freeze-thaw; membrane fraction
T1 sequence (P25105 whole entry): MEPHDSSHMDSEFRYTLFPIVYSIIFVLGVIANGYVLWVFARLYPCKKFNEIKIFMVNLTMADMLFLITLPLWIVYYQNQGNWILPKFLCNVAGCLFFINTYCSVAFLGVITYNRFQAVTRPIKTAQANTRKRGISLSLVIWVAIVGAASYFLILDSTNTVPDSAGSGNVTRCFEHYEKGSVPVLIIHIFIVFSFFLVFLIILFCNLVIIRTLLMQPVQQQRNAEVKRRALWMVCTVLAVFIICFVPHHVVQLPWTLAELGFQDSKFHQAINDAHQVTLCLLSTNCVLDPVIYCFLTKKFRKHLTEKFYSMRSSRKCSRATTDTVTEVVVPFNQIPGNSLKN
Experimental: Compounds of general formula I inhibit PAF-induced functions in both the cellular and tissue levels by changing the PAF binding to its specific receptor site. The ability of compounds of general formula I to inhibit the binding of PAF to its specific receptor binding site on human platelet plasma membranes was measured according to Example 24.
Inhibition of [^3 H]-PAF Receptor Binding
The inhibition of [^3 H]-PAF binding to human platelet plasma membrane by compounds of general formula I is determined by isotopic labelling and filtration techniques. Platelet concentrates are obtained from a hospital blood bank. These platelet concentrates (500-2500 ml.) are centrifuged at 800 rpm for 10 minutes in a SORVALL RC3B centrifuge to remove the red blood cells present. (The word SORVALL is a trade mark.) The supernatant is subsequently centrifuged at 3,000 rpm in a SORVALL RC3B centrifuge to pellet the platelets present. The platelet rich pellets are resuspended in a minimum volume of buffer (150 mM NaCl, 10 mM Tris, 2 mM EDTA, pH 7.5) and layered onto Ficoll-Paque gradients, 9 ml platelet concentrate to 2 ml Ficoll, and centrifuged at 1,900 rpm for 15 minutes in a SORVALL RT6000 centrifuge. This step removes the residual red blood cells and other nonspecific material such as lymphocytes from the preparation. The platelets which form a band between the plasma and the Ficoll are removed, resuspended in the above buffer and centrifuged at 3,000 rpm for 10 minutes in a SORVALL RT6000 centrifuge. The pelleted platelets are resuspended in buffer (10 mM Tris, 5 mM MgCl2, 2 mM EDTA, pH 7.0), snap freezed in liquid N2 and allowed to thaw slowly at room temperature in order to lyse the platelets. The latter step is repeated at least 3 times to ensure proper lysis. The lysed platelets are centrifuged at 3,000 rpm for 10 minutes in a SORVALL RT6000 centrifuge and resuspended in buffer. The latter step is repeated twice in order to remove any cytoplasmic proteins which may hydrolyse the platelet activating factor (PAF) receptor. The prepared platelet membranes may be stored at -70° C. After thawing the prepared membranes are centrifuged in a SORVALL RT6000 at 3,000 rpm for 10 minutes and resuspended in assay buffer.
The assay is conducted by preparing a series of Tris-buffered solutions of the selected antagonist of predetermined concentrations. Each of these solutions contained [^3 H]-PAF (0.5 nM; 1-O-[^3 H]octadecyl-2-acetyl-sn-glycero-3-phosphoryl choline with a specific activity of 132 Ci/mmol), […], a known amount of the test antagonist, and a sufficient amount of Tris-buffer solution (10 mM Tris, 5 mM MgC2, pH 7.0, 0.25% BSA) to make the final volume 1 ml. Incubation is initiated by the addition of 100 μg of the isolated membrane fraction to each of the above solutions at 0° C. Two control samples, one (C1) which contained all the ingredients described above except the antagonist and the other (C2) contains C1 plus a 1000-fold excess of unlabelled PAF, are also prepared and incubated simultaneously with the test samples. After 1 hour incubation, each solution is filtered rapidly under vacuo through a WHATMAN GF/C glass fibre filter in order to separate unbound PAF from bound PAF. (The word WHATMAN is a trade mark.) The residue in each case is rapidly washed 4 times with 5 ml cold (4° C.) Tris-buffer solution. Each washed residue is dried under vacuum on a sampling manifold and placed into vials containing 20 ml of OPTIPHASE MP scintillation fluid and the radioactivity counted in a liquid scintillation counter. (The word OPTIPHASE is a trade mark.) Defining the counts for total binding with antagonist from a test sample as "TBA"; the counts for total binding from the control sample C1 as "TB"; and the counts for nonspecific binding from the control sample C2 as "NSB"; the percent inhibition of each test antagonist can be determined by the following equation:
%Inhibition=[(TB-TBA)/SB]×100
where the specific binding SB=TB-NSB […]
In the case of `CCOC(=O)[C@H](CC(C)C)N(C)S(=O)(=O)c1ccc(Cn2ccc3ncnc-3c2)cc1` [Example 1, N-Methyl-N-4-(5H-imidazo[4,5-c]pyridylmethyl)phenylsulphonyl-L-leucine ethyl ester], the IC50 is reported as 5 nM.
`C=CCOC(=O)[C@H]([C@@H](C)CC)N(C)S(=O)(=O)c1ccc(Cn2ccc3nc(C)nc-3c2)cc1` [Example 4, N-Methyl-N-4-(5H-2-methylimidazo[4,5-c]pyridylmethyl)phenylsulphonyl-L-isoleucine allyl ester] gave an IC50 of 10 nM.
In the case of `CCOC(=O)[C@H](CC(C)C)N(C)S(=O)(=O)c1ccc(Cn2ccc3nc(C)nc-3c2)c(Cl)c1` [Example 5, N-Methyl-N-4-(5H-2-methylimidazo[4,5-c]pyridylmethyl)-3-chlorophenylsulphonyl-L-leucine ethyl ester], the IC50 is reported as 2 nM.
In the case of `CCOC(=O)CN([C@@H](CC(C)C)C(=O)OCC)S(=O)(=O)c1ccc(Cn2ccc3nc(C)nc-3c2)cc1` [Example 6, N-Ethoxycarbonylmethyl-N-4-(5H-2-methylimidazo[4,5-c]pyridylmethyl)phenylsulphonyl-L-leucine ethyl ester], the IC50 is reported as 10 nM.
Compound `CCOC(=O)[C@H](CC(C)C)N(CC(=O)OC(C)(C)C)S(=O)(=O)c1ccc(Cn2ccc3nc(C)nc-3c2)cc1` [Example 8, N-t-Butyloxycarbonylmethyl-N-4-(5H-2-methylimidazo[4,5-c]pyridylmethyl)phenylsulphonyl-L-leucine ethyl ester] has an IC50 of 15 nM.
With `Cc1nc2ccn(Cc3ccc(S(=O)(=O)N(C)[C@H](CO[Si](c4ccccc4)(c4ccccc4)C(C)(C)C)CC(C)C)cc3)cc-2n1` [Example 21, N-Methyl-N-4-(5H-2-methylimidazo[4,5-c]pyridylmethyl)phenylsulphonyl-L-leucinyl t-butyldiphenylsilyl ether] the IC50 was 20 nM.
With `COC(C)C(C(C)C)N(C)S(=O)(=O)c1ccc(Cn2ccc3nc(C)nc-3c2)cc1` (stereo not shown) [Example 23, N-Methyl-N-4-(5H-2-methylimidazo[4,5-c]pyridylmethyl)phenylsulphonyl-2-methoxy-3-amino-4-methylpentane] the IC50 was 15 nM.
